Assay results reported in US12065445B2, “CDK2 inhibitors and methods of using the same” (Cedilla Therapeutics, Inc., priority 2021, dated 2024).

Tested on: Kuramochi cells
Assay: BrdU Cell Proliferation Assay
Type: cell-based
Conditions: read-out: BrdU - KURAMOCHI.1: IC50
Procedure: A BrdU assay was used as a measure of proliferation based on the DNA replication process of proliferating cells. BrdU, a pyrimidine analog, is added to the cell culture and incorporated into the DNA of proliferating cells. The presence of the BrdU analog was then measured through a colorimetric ELISA. After fixation and permeabilization of cells, peroxidase-conjugated antibody recognizing BrdU is added and allowed to incubate, followed by thorough washing to remove unbound antibody. In order to quantify the amount of bound antibody, peroxidase substrate is added and produces a color that can be measured at 450 nm.
On day −1, Kuramochi cells (Sekisui XenoTech JCRB0098) were seeded at 2,000 cells/well in columns 2-12 of a 96 well plate (Corning, CLS3596) in 150 μL media and allowed to adhere overnight at 37 degree with 5% CO2.
On day 0, the source plate was prepared by adding 10 mM compounds and performing 3-fold serial dilutions for a 10-point dose response of each compound. Using a multichannel pipette, 2 μL of the contents of the source plate were stamped into an intermediate plate with 500 μL of RPMI 1640 Media, GlutaMAX Supplement (Life Technologies, 61870127) in each well of a Nunc 96 DeepWell™ plate, non-treated 96 DeepWell plate, 2 mL/well, sterile, natural, 60/cs (Sigma Z717274) and mixed thoroughly. 50 μL from each well of this intermediate plate were added to 4 wells of a 96-well plate with previously seeded Kuramochi cells.
On day 4, the plates were developed using the BrdU ELISA Cell Proliferation Assay according to manufacturer's instructions (Roche, 11647229001). Briefly, BrdU was diluted 1:100 in Gibco®, OptiMEM® and 20 μL/well was added, shaken for 10 minutes at 350 rpm, and then returned to the incubator for 1 hour. Following incubation, the medium was discarded, and the cells were fixed by adding 200 μL of Fix/Denature solution. The anti-BrdU peroxidase antibody was diluted 1:1000 in OptiMEM, added at 100 μL/well, and incubated while shaking (350 rpm) for one hour. Three washes with PBS were performed to remove any unbound antibody, followed by the addition of 100 μL of substrate solution to each well. 25 μL/well of 1M sulfuric acid solution was then added to halt the reaction, and plates were read out using an Envision spectrophotometer (Perkin Elmer) set to read 450 nm absorbance. Background absorbance values from empty wells were subtracted from all samples and then normalized to DMSO treated wells.

CNC(=O)[C@@H](NC(=O)[C@H]1CN(Cc2cnco2)CC12CN(C(=O)[C@H]1CC1(C)C)C2)[C@@H](C)OCc1ccccc1 [I-78B] was tested, and the IC50 was > 10 µM.

CNC(=O)[C@@H](NC(=O)[C@H]1CN(C(=O)c2cnc[nH]2)CC12CN(C(=O)[C@H]1CC1(C)C)C2)[C@@H](C)OCc1ccccc1 [I-44B] was tested, and the IC50 was > 10 µM.

CNC(=O)[C@@H](NC(=O)[C@@H]1CN(C(=O)c2nccs2)CC12CN(C(=O)[C@H]1CC1(C)C)C2)[C@@H](C)OCC1CCCCC1 [I-169] was tested, and the IC50 was > 10 µM.

C[C@@H](OCC1CCCCC1)[C@H](NC(=O)[C@@H]1CN(C(=O)c2ccns2)CC12CN(C(=O)[C@H]1CC1(C)C)C2)C(=O)N1CCCCC1 [I-217] was tested, and the IC50 was ≤ 0.5 µM.

CNC(=O)[C@@H](NC(=O)[C@@H]1CN(C(=O)c2cnn(Cc3ccccc3)c2)CC12CN(C(=O)C(C)(C)C)C2)[C@@H](C)OCc1ccccc1 [I-65A] was tested, and the IC50 was > 10 µM.

CNC(=O)[C@@H](NC(=O)[C@@H]1CN(C(=O)c2cnn(Cc3ccccc3)c2)CC12CN(C(=O)CC(C)C)C2)[C@@H](C)OCc1ccccc1 [I-69A] was tested, and the IC50 was > 10 µM.

In the case of C[C@@H]1C[C@H](C)CN(C(=O)[C@@H](NC(=O)C2CN(C(=O)c3cncs3)CC23CN(C(=O)[C@H]2CC2(C)C)C3)[C@@H](C)OCC2CCCCC2)C1 (stereo partly drawn) [I-172], the IC50 is reported as ≤ 0.5 µM.

With Cc1noc([C@H](C)NC(=O)[C@@H]2CN(C(=O)c3cnn(Cc4ccccc4)c3)CC23CN(C(=O)[C@H]2CC2(C)C)C3)n1 [I-158A] the IC50 was > 10 µM.

In the case of CC1(C)C[C@@H]1C(=O)N1CC2(CN(C(=O)c3cnn(Cc4ccccc4)c3)C[C@H]2C(=O)NCCOCc2ccccc2)C1 [I-96A], the IC50 is reported as > 10 µM.

With CNC(=O)[C@@H](NC(=O)[C@@H]1CN(C(=O)c2cnn(Cc3ccccc3)c2)CC12CN(C(=O)C1(C)CC1)C2)[C@@H](C)OCc1ccccc1 [I-67A, (S)-6-(1-benzyl-1H-pyrazole-4-carbonyl)-N-((2S,3R)-3-(benzyloxy)-1-(methylamino)-1-oxobutan-2-yl)-2-(1-methylcyclopropane-1-carbonyl)-2,6-diazaspiro[3.4]octane-8-carboxamide] the IC50 was > 10 µM.

With CNC(=O)[C@@H](NC(=O)[C@H]1CN(C(=O)c2sc(Cl)nc2Cl)CC12CN(C(=O)[C@H]1CC1(C)C)C2)[C@@H](C)OCC1CCCCC1 [I-232B] the IC50 was > 10 µM.

CNC(=O)[C@@H](NC(=O)[C@@H]1CN(C(=O)c2cnn(Cc3ccccc3)c2)CC12CN(C(=O)[C@H]1CC1(C)C)C2)[C@@H](C)OCC1CCC(C(F)(F)F)CC1 (stereo partly drawn) [I-141A] showed an IC50 of 0.5 to 5 µM.

In the case of CCCCC1CC1C(=O)N1CC2(CN(C(=O)c3cnn(Cc4ccccc4)c3)C[C@H]2C(=O)N[C@H](C(=O)NC)[C@@H](C)OCc2ccccc2)C1 (stereo partly drawn) [I-94A], the IC50 is reported as > 10 µM.

C[C@@H](OCC1CCC(F)(F)CC1)[C@H](NC(=O)[C@@H]1CN(C(=O)c2cn[nH]c2)CC12CN(C(=O)C1(C(F)(F)F)CC1)C2)C(=O)N1CCC(F)(F)CC1 [I-188A] was tested, and the IC50 was > 10 µM.

For COC(=O)[C@H](CO)NC(=O)[C@@H]1CN(C(=O)c2cnn(Cc3ccccc3)c2)CC12CN(C(=O)[C@H]1CC1(C)C)C2 [I-209A], the IC50 was > 10 µM.

With CNC(=O)[C@@H](NC(=O)[C@H]1CN(C(=O)c2cnn(Cc3ccccc3)c2)CC12CN(C(=O)C1(C(F)(F)F)CC1)C2)[C@@H](C)OCc1ccccc1 [I-108B] the IC50 was > 10 µM.

In the case of CNC(=O)[C@@H](NC(=O)[C@@H]1CN(C(=O)C2CCOCC2)CC12CN(C(=O)[C@H]1CC1(C)C)C2)[C@@H](C)OCc1ccccc1 [I-38A], the IC50 is reported as > 10 µM.

In the case of CNC(=O)[C@@H](NC(=O)[C@@H]1CN(C(=O)c2cnn(Cc3ccccc3)c2)CC12CN(C(=O)[C@H]1CC1(C)C)C2)[C@@H](C)OCC1(C(F)(F)F)CC1 [I-205A], the IC50 is reported as > 10 µM.

With CNC(=O)[C@@H](NC(=O)[C@H]1CN(C(=O)c2cnc(C3CC3)s2)CC12CN(C(=O)[C@H]1CC1(C)C)C2)[C@@H](C)OCC1CCCCC1 [I-178B] the IC50 was > 10 µM.

With CNC(=O)[C@@H](NC(=O)[C@H]1CN(C(=O)c2scnc2C)CC12CN(C(=O)[C@H]1CC1(C)C)C2)[C@@H](C)OCC1CCCCC1 [I-160B] the IC50 was > 10 µM.

For CNC(=O)[C@@H](NC(=O)[C@H]1CN(C(=O)c2cn[nH]c2)CC12CN(C(=O)CC1CC1)C2)[C@@H](C)OCc1ccccc1 [I-41B], the IC50 was > 10 µM.

In the case of CNC(=O)[C@@H](NC(=O)[C@@H]1CN(C(=O)c2cnn(Cc3ccccc3)c2)CC12CN(C(=O)[C@H]1CC1(C)C)C2)[C@@H](C)OCc1ccccc1O [I-251], the IC50 is reported as > 10 µM.

With COC(=O)[C@@H](CO)NC(=O)[C@@H]1CN(C(=O)c2cnn(Cc3ccccc3)c2)CC12CN(C(=O)[C@H]1CC1(C)C)C2 [I-187A] the IC50 was > 10 µM.

CNC(=O)[C@@H](NC(=O)[C@H]1CN(C(=O)c2cnn(Cc3ccccc3)c2)CC12CN(C(=O)[C@H]1CC1(C)C)C2)[C@@H](C)OCC1CCCCC1 [I-123B] was tested, and the IC50 was > 10 µM.

For CNC(=O)[C@@H](NC(=O)[C@H]1CN(C(=O)c2cncs2)CC12CN(C(=O)[C@H]1CC1(C)C)C2)[C@@H](C)OCc1ccccc1 [I-24B], the IC50 was > 10 µM.

With COC[C@H]1CCCN(C(=O)[C@@H](NC(=O)[C@@H]2CN(C(=O)c3cncs3)CC23CN(S(=O)(=O)C(C)(C)C)C3)[C@@H](C)OCC2CCCCC2)C1 [I-447, (S)-2-(tert-butylsulfonyl)-N-((2S,3R)-3-(cyclohexylmethoxy)-1-((S)-3-(methoxymethyl)piperidin-1-yl)-1-oxobutan-2-yl)-6-(thiazole-5-carbonyl)-2,6-diazaspiro[3.4]octane-8-carboxamide] the IC50 was > 10 µM.

In the case of COCC1(NC(=O)[C@H]2CN(C(=O)c3cnn(Cc4ccccc4)c3)CC23CN(C(=O)[C@H]2CC2(C)C)C3)CC1 [I-250], the IC50 is reported as > 10 µM.

With CC1(C)C[C@@H]1C(=O)N1CC2(CN(C(=O)c3cnn(Cc4ccccc4)c3)C[C@H]2C(=O)NCC2CCCCO2)C1 (stereo partly drawn) [I-221] the IC50 was > 10 µM.

With CNC(=O)[C@@H](NC(=O)[C@H]1CN(C(=O)c2cnn(CC3CCN(C(C)=O)CC3)c2)CC12CN(C(=O)[C@H]1CC1(C)C)C2)[C@@H](C)OCc1ccccc1 [I-17B] the IC50 was > 10 µM.

CNC(=O)[C@@H](NC(=O)[C@@H]1CN(C(=O)c2cnn(Cc3ccccc3)c2)CC12CN(C(=O)[C@H]1CC1(C)C)C2)[C@@H](C)OCC1CCCC1 [I-110A] showed an IC50 of 0.5 to 5 µM.

With CNC(=O)[C@@H](NC(=O)[C@@H]1CN(C(=O)c2cnn(Cc3ccccc3)c2)CC12CN(C(=O)C1C(C)(C)C1(C)C)C2)[C@@H](C)OCc1ccccc1 [I-89A] the IC50 was > 10 µM.

In the case of C[C@@H](NC(=O)[C@@H]1CN(C(=O)c2cnn(Cc3ccccc3)c2)CC12CN(C(=O)[C@H]1CC1(C)C)C2)c1cccc(F)c1 [I-128A], the IC50 is reported as > 10 µM.

For CNC(=O)[C@@H](NC(=O)[C@@H]1CN(C(=O)c2cnn(Cc3ccccc3)c2)CC12CN(C(=O)C1(c3ccc(C(C)(C)C)cc3)CC1)C2)[C@@H](C)OCc1ccccc1 [I-80A], the IC50 was > 10 µM.

In the case of CNC(=O)[C@@H](NC(=O)[C@H]1CN(C(=O)c2cnn(Cc3ccccc3)c2)CC12CN(C(=O)C1(C)CC1)C2)[C@@H](C)OCc1ccccc1 [I-67B], the IC50 is reported as > 10 µM.

CNC(=O)[C@@H](NC(=O)[C@H]1CN(C(=O)c2cnn(Cc3ccccc3)c2)CC12CN(C(=O)CC1(COC)CC1)C2)[C@@H](C)OCc1ccccc1 [I-82B] was tested, and the IC50 was > 10 µM.

For CNC(=O)[C@@H](NC(=O)[C@H]1CN(C(=O)c2cnn(Cc3ccccc3)c2)CC12CN(C(=O)[C@H]1CC1(C)C)C2)[C@H](C)OCC1CCCCC1 [I-165], the IC50 was > 10 µM.

In the case of CNC(=O)[C@H](CCCc1ccccc1)NC(=O)[C@@H]1CN(C(=O)c2cnn(Cc3ccccc3)c2)CC12CN(C(=O)[C@H]1CC1(C)C)C2 [I-101A], the IC50 is reported as > 10 µM.

In the case of C[C@@H](OCC1CCCCC1)[C@H](NC(=O)[C@H]1CN(C(=O)c2cn[nH]c2)CC12CN(C(=O)[C@H]1CC1(C)C)C2)C(=O)N1CCCCC1 [I-151B], the IC50 is reported as > 10 µM.

In the case of CNC(=O)[C@@H](NC(=O)[C@H]1CN(C(=O)c2cnn(Cc3ccccc3)c2)CC12CN(C(=O)CC(C)(C)C)C2)[C@@H](C)OCc1ccccc1 [I-62B], the IC50 is reported as > 10 µM.

With CNC(=O)[C@@H](NC(=O)[C@@H]1CN(C(=O)c2n[nH]c3ccccc23)CC12CN(C(=O)[C@H]1CC1(C)C)C2)[C@@H](C)OCc1ccccc1 [I-112A] the IC50 was > 10 µM.

CNC(=O)[C@@H](NC(=O)[C@H]1CN(Cc2cncs2)CC12CN(C(=O)[C@H]1CC1(C)C)C2)[C@@H](C)OCc1ccccc1 [I-51B] was tested, and the IC50 was > 10 µM.

With CC1(C)C[C@@H]1C(=O)N1CC2(CN(C(=O)c3cnn(Cc4ccccc4)c3)C[C@@H]2C(=O)Nc2ccc(-c3ccccc3)cc2)C1 [I-81B] the IC50 was 5 to 10 µM.

In the case of CNC(=O)[C@@H](NC(=O)[C@H]1CN(C(=O)c2cnn(Cc3ccccc3)c2)CC12CN(C(=O)C(C)(C)C#N)C2)[C@@H](C)OCc1ccccc1 [I-76B], the IC50 is reported as > 10 µM.

With CNC(=O)[C@@H](NC(=O)[C@@H]1CN(C(=O)c2cnn(Cc3ccccc3)c2)CC12CN(C(=O)C(C)C)C2)[C@@H](C)OCc1ccccc1 [I-54A] the IC50 was > 10 µM.

For C[C@@H](OCc1ccccc1)[C@H](NC(=O)[C@H]1CN(C(=O)c2cnn(Cc3ccccc3)c2)CC12CN(C(=O)[C@H]1CC1(C)C)C2)C(N)=O [I-176B], the IC50 was > 10 µM.
